Tested on: B16 mouse melanoma cells
Test: B16 inhibition assay (melanin synthesis, normalized to MTT cell viability)
Format: cell-based
Conditions: 7 days
Description: The B16 assay uses a cell line derived from mice with inhibition of tyrosinase as the end point. For the B16 assay, the active oxobutanoic acid tyrosinase inhibitors as disclosed herein in Table 1 were tested in a monolayer cell culture of B16 mouse melanoma cells. These cells are known to constitutively produce melanin and are a commonly utilized and accepted model system for monitoring the inhibition of melanin synthesis.
The B16 mouse melanoma cells were seeded (ATCC, cat. #: CRL-6475) into 96-well tissue culture-treated plates (BD Falcon) and treated with test actives diluted in DMEM without phenol red (Mediatech; cat. #: 17-205-CV) and examined for their ability to modulate pigment formation. Kojic acid was used as the positive control inhibitor. Cells were exposed to diluted test material or controls for 7 days. Following the treatment period, the level of pigment produced or melanin synthesized was quantified by reading the absorbance at 540 nm using a standard microplate reader (Tecan Group Ltd.).
After quantifying the amount of melanin, cell viability was determined using the MTT conversion method. The MTT conversion method measures the reduction of the MTT dye from a yellow colored, water-soluble, tetrazolium salt to a bluish-purple colored insoluble formazan precipitate by NAD(P)H-dependent microsomal dehydrogenase enzymes, which only function in viable cells. The intensity of the blue color is indicative of cell viability. After quantifying the amount of melanin pigment produced, the cells were exposed to MTT dye solution (1 mg/ml) for two to three hours. Formazan material was solubilized with reagent alcohol (95% ethanol: 5% isopropanol) and shaken on an orbital shaker for 15-30 minutes. MTT dye uptake and conversion by viable cells were determined by measuring the extracted formazan at 570 nm using a microplate reader. Total pigmentation was calculated, normalized to cell viability values and expressed as percent activity relative to control. The compounds A-H of Table 1 in a weight percent ranging from about 0.0002% to about 0.002% inhibited tyrosinase by a percent ranging from about 29% to about 87%. […]

Row | SMILES | B16 Results Percent inhibition of melanin (concentration 0.0001%) [%] | B16 Results Percent inhibition of melanin (concentration 0.001%) [%]
1 | Cc1ccc(C(=O)CC(NCc2ccccc2)C(=O)O)cc1 (stereo not drawn) [K, 2-(benzylamino)-4-(4′-methylphenyl)-4-oxobutanoic acid] | −46 | −67
2 | Cc1ccc(C(=O)CC(NCc2ccco2)C(=O)O)cc1 (stereo not drawn) [I, 2-(2-furanylmethylamino)-4-(4′-methylphenyl)-4-oxobutanoic acid] | −20 | −71
3 | COc1ccc(C(=O)CC(NCc2cccnc2)C(=O)O)cc1 (stereo not drawn) [J, 2-(3-pyridylmethylamino)-4-(4′-methoxyphenyl)-4-oxobutanoic acid] | −27.84 | −53.63

Reference: patent US8329149B2, “Topical lightening composition and uses thereof” (Avon Products, Inc., priority 2009, dated 2012)
